Reference: PubChem BioAssay AID1918999 (Molecular Pharmacology Branch, DTP, NCI, 2023)
“And” between values parts separate entries of the source, which are not always exact repeats. Equal values may be shown once.

Test system: 556581-035-R-J1-PDC complex spheroid growth
Test: Anticancer human tumor 556581-035-R-J1-PDC patient-derived ovarian carcinoma cell line growth inhibition [AhR]
Details: for viability, T/C: stronger effect = lower value; active = viability on the fitted dose curve at most 10% of control; inactive = the rest
Outline: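 Agents were dosed in half-log steps down from roughly clinical Cmax, or from 10 microM where Cmax was unknown, alone and with AhR antagonists. Read-out: percent test/control growth of tumor spheroids containing HUVEC and MSC stromal cells.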

[1] = curve of first compound, second compound 0.1 µM
[2] = curve of first compound, second compound 0.316 µM
[3] = curve of first compound, second compound 1 µM
[4] = curve of first compound, second compound 3.16 µM
[5] = curve of first compound, second compound 10 µM
[6] = second compound 0.1 µM, first compound 0.0316 µM
[7] = second compound 0.1 µM, first compound 0.1 µM
[8] = second compound 0.316 µM, first compound 0.0316 µM
[9] = second compound 0.316 µM, first compound 0.1 µM
[10] = second compound 1 µM, first compound 0.0316 µM
[11] = second compound 1 µM, first compound 0.1 µM
[12] = second compound 3.16 µM, first compound 0.0316 µM
[13] = second compound 3.16 µM, first compound 0.1 µM
[14] = second compound 10 µM, first compound 0.0316 µM
[15] = second compound 10 µM, first compound 0.1 µM
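Throughout, for viability, T/C: compound exposure lasted 7 days; 100% = DMSO vehicle control growth.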

Nc1ncn(C2CC(O)C(CO)S2)c(=O)n1 (configuration not stated) + CC(CO)NC(=O)c1cc(-c2ccc(Cl)cc2)nn(-c2cnn(C)c2)c1=O
inactive: viability, T/C (second compound 0.1 µM, first compound 0.000949 µM) 122% | viability, T/C (second compound 0.1 µM, first compound 0.003 µM) 117% | viability, T/C (second compound 0.1 µM, first compound 0.00949 µM) 106% | viability, T/C (second compound 0.1 µM, first compound 0.03 µM) 115% | viability, T/C (second compound 0.1 µM, first compound 0.0949 µM) 109% | viability, T/C (second compound 0.1 µM, first compound 0.3 µM) 73.3% | viability, T/C (second compound 0.316 µM, first compound 0.000949 µM) 112% | viability, T/C (second compound 0.316 µM, first compound 0.003 µM) 106% | viability, T/C (second compound 0.316 µM, first compound 0.00949 µM) 116% | viability, T/C (second compound 0.316 µM, first compound 0.03 µM) 111% | viability, T/C (second compound 0.316 µM, first compound 0.0949 µM) 100% | viability, T/C (second compound 0.316 µM, first compound 0.3 µM) 69.9% | viability, T/C (second compound 1 µM, first compound 0.000949 µM) 114% | viability, T/C (second compound 1 µM, first compound 0.003 µM) 131% | viability, T/C (second compound 1 µM, first compound 0.00949 µM) 126% | viability, T/C (second compound 1 µM, first compound 0.03 µM) 121% | viability, T/C (second compound 1 µM, first compound 0.0949 µM) 108% | viability, T/C (second compound 1 µM, first compound 0.3 µM) 80.2% | viability, T/C (second compound 3.16 µM, first compound 0.000949 µM) 123% | viability, T/C (second compound 3.16 µM, first compound 0.003 µM) 128% | viability, T/C (second compound 3.16 µM, first compound 0.00949 µM) 125% | viability, T/C (second compound 3.16 µM, first compound 0.03 µM) 109% | viability, T/C (second compound 3.16 µM, first compound 0.0949 µM) 97.1% | viability, T/C (second compound 3.16 µM, first compound 0.3 µM) 80.8% | viability, T/C (second compound 10 µM, first compound 0.000949 µM) 122% | viability, T/C (second compound 10 µM, first compound 0.003 µM) 111% | viability, T/C (second compound 10 µM, first compound 0.00949 µM) 111% | viability, T/C (second compound 10 µM, first compound 0.03 µM) 125% | viability, T/C (second compound 10 µM, first compound 0.0949 µM) 106% | viability, T/C (second compound 10 µM, first compound 0.3 µM) 84%
> 300 nM: IC50 [1] | IC50 [2] | IC50 [3] | IC50 [4] | IC50 [5]

CC[C@@]1(O)C(=O)OCc2c1cc1n(c2=O)Cc2cc3c(CN(C)C)c(O)ccc3nc2-1 + Cc1cncc(-c2nc(NCCc3c[nH]c4ccccc34)c3ncn(C(C)C)c3n2)c1
> 100 nM: IC50 [1] | IC50 [2] | IC50 [3] | IC50 [4] | IC50 [5]
inactive: viability, T/C (second compound 0.1 µM, first compound 0.000316 µM) 114% | viability, T/C (second compound 0.1 µM, first compound 0.001 µM) 110% | viability, T/C (second compound 0.1 µM, first compound 0.00316 µM) 105% | viability, T/C (second compound 0.1 µM, first compound 0.01 µM) 97.6% | viability, T/C [6] 85% | viability, T/C [7] 64.3% | viability, T/C (second compound 0.316 µM, first compound 0.000316 µM) 108% | viability, T/C (second compound 0.316 µM, first compound 0.001 µM) 115% | viability, T/C (second compound 0.316 µM, first compound 0.00316 µM) 109% | viability, T/C (second compound 0.316 µM, first compound 0.01 µM) 97.4% | viability, T/C [8] 90.2% | viability, T/C [9] 62.3% | viability, T/C (second compound 1 µM, first compound 0.000316 µM) 117% | viability, T/C (second compound 1 µM, first compound 0.001 µM) 115% | viability, T/C (second compound 1 µM, first compound 0.00316 µM) 105% | viability, T/C (second compound 1 µM, first compound 0.01 µM) 95% | viability, T/C [10] 83.4% | viability, T/C [11] 57.9% | viability, T/C (second compound 3.16 µM, first compound 0.000316 µM) 95.3% | viability, T/C (second compound 3.16 µM, first compound 0.001 µM) 101% | viability, T/C (second compound 3.16 µM, first compound 0.00316 µM) 104% | viability, T/C (second compound 3.16 µM, first compound 0.01 µM) 101% | viability, T/C [12] 81.3% | viability, T/C [13] 62.6% | viability, T/C (second compound 10 µM, first compound 0.000316 µM) 99.8% | viability, T/C (second compound 10 µM, first compound 0.001 µM) 103% | viability, T/C (second compound 10 µM, first compound 0.00316 µM) 99.3% | viability, T/C (second compound 10 µM, first compound 0.01 µM) 88.1% | viability, T/C [14] 76.9% | viability, T/C [15] 67.2%

O=C(C=Cn1cnc(-c2cc(C(F)(F)F)cc(C(F)(F)F)c2)n1)NNc1cnccn1
2220 nM and > 3000 nM: IC50 (curve of compound)
inactive: viability, T/C (compound 0.00949 µM) 91.3% (2×) and 109% | viability, T/C (compound 0.03 µM) 104% and 93.8% and 98.7% | viability, T/C (compound 0.0949 µM) 89.4% and 85% and 83.4% | viability, T/C (compound 0.3 µM) 80.2% and 78.5% and 72.8% | viability, T/C (compound 0.949 µM) 65.8% and 77.7% and 69.5% | viability, T/C (compound 3 µM) 44.5% and 54% and 67.8%

O=C(C=Cc1cccc(S(=O)(=O)Nc2ccccc2)c1)NO + Cc1cncc(-c2nc(NCCc3c[nH]c4ccccc34)c3ncn(C(C)C)c3n2)c1
938 nM: IC50 [5]
1680 nM: IC50 [2]
1420 nM: IC50 [3]
active: viability, T/C (second compound 0.1 µM, first compound 10 µM) 3.96% | viability, T/C (second compound 0.316 µM, first compound 10 µM) 3.92% | viability, T/C (second compound 1 µM, first compound 10 µM) 5.09% | viability, T/C (second compound 3.16 µM, first compound 10 µM) 6.45% | viability, T/C (second compound 10 µM, first compound 10 µM) 4.13%
inactive: viability, T/C [6] 106% | viability, T/C [7] 118% | viability, T/C (second compound 0.1 µM, first compound 0.316 µM) 90.2% | viability, T/C (second compound 0.1 µM, first compound 1 µM) 58% | viability, T/C (second compound 0.1 µM, first compound 3.16 µM) 32% | viability, T/C [8] 102% | viability, T/C [9] 104% | viability, T/C (second compound 0.316 µM, first compound 0.316 µM) 87.3% | viability, T/C (second compound 0.316 µM, first compound 1 µM) 69.6% | viability, T/C (second compound 0.316 µM, first compound 3.16 µM) 27.9% | viability, T/C [10] 111% | viability, T/C [11] 114% | viability, T/C (second compound 1 µM, first compound 0.316 µM) 82.2% | viability, T/C (second compound 1 µM, first compound 1 µM) 60.9% | viability, T/C (second compound 1 µM, first compound 3.16 µM) 28.9% | viability, T/C [12] 108% | viability, T/C [13] 101% | viability, T/C (second compound 3.16 µM, first compound 0.316 µM) 87% | viability, T/C (second compound 3.16 µM, first compound 1 µM) 62.5% | viability, T/C (second compound 3.16 µM, first compound 3.16 µM) 26.9% | viability, T/C [14] 92.2% | viability, T/C [15] 88.8% | viability, T/C (second compound 10 µM, first compound 0.316 µM) 80.1% | viability, T/C (second compound 10 µM, first compound 1 µM) 43.5% | viability, T/C (second compound 10 µM, first compound 3.16 µM) 24.8%
1480 nM: IC50 [1]
1460 nM: IC50 [4]
